According to paper PMC7268155 (F1000Research, 2020):
Structures can show the parent of a compound that is named as a salt.

Tests used:
in vitro = settings: human, Viability at 10µM (MTT viability)
[1] = tested on: Ebola virus replication (trVLP); experiment: microbe, parasite or virus in culture; assay type: cell-based, Ebola Zaire; settings: for inhibition at 10 µM / IC50: Zaire ebolavirus, HEK-293T; for inhibition at 10 µM: read-out: Inhibition at 10µM (percent inhibition of trVLP replication); for IC50: read-out: IC50 to inhibit Ebola virus (trVLP) replication
HEK-293T cells = settings: for Viability at 10µM (MTT viability): human
Leishmania spp. = settings: cited from earlier work
Ebola virus = settings: cited from earlier work
Plasmodium = settings: cited from earlier work
Ebola virus disease = settings: mouse, in vivo; cited from earlier work

SMILES	viability at 10 µM (in vitro) [%]	inhibition at 10 µM [1] [%]	inhibitory activity in trVLP assay (in words) [1]	other results
N#C/C=C/c1ccc2ccccc2n1 [2CNQ]	88 ± 3.63	3.07 ± 8.34	–	–
O=C(O)/C=C/c1ccc2ccccc2n1 [2COOHQ]	88.5 ± 1.54	30.6 ± 6.15	strongly reduced the antiviral inhibition	toxicity / cell viability (in words) (HEK-293T cells): good cell viability
NC/C=C/c1ccc2ccccc2n1 [2NH2Q]	81	89	having inhibitory activity	Inhibition at 10µM (percent inhibition of trVLP replication) [1]: 89.74± 6.53%; IC50 [1]: 4.66 µM; Viability at 10µM (MTT viability) (HEK-293T cells): 81.10± 2.09%
OC/C=C/c1ccc2ccccc2n1 [2OHQ]	31	89	having inhibitory activity	activity against Leishmania (Leishmania spp.): in vitro and in vivo activities; Inhibition at 10µM (percent inhibition of trVLP replication) [1]: 89.69± 4.09%; Viability at 10µM (MTT viability) (HEK-293T cells): 31.15± 1.27%
CCCc1ccc2ccccc2n1 [2PQSel]	97.6 ± 2.06	10.8 ± 32.4	–	activity against Leishmania (Leishmania spp.): in vitro and in vivo activities; antileishmanial activity (Leishmania spp.): antileishmanial activity
CCCCCc1ccc2ccccc2n1 [2PentQ]	–	–	–	Inhibition at 10µM (percent inhibition of trVLP replication) [1]: -6.39± 9.15%; Viability at 10µM (MTT viability) (HEK-293T cells): 103.48± 0.99%
OCCCCCCCCCCCCCCCCc1ccc2ccccc2n1 [2Q16OH]	74 ± 0.75	-124 ± 30.6	–	–
OC(Cc1ccc2ccccc2n1)c1ccccc1 (centres unmarked) [2QPOH]	88.3 ± 3.26	-114 ± 92.5	–	–
C(=C\c1ccc2ccccc2n1)/c1ccc2ccccc2n1 [2QQ]	57.31 ± 0.29	74.3 ± 13.4	having inhibitory activity	–
C#CC(O)CCCCCCCCCCCCC#Cc1ccc2ccccc2n1 (centres unmarked) [2Qi15]	109.5 ± 0.25	93.3 ± 4.94	having inhibitory activity	–
COc1ccc(/C=C/c2ccc3ccc(C(O)c4cccc(C#N)c4)c(OC)c3n2)cc1OC (centres unmarked) [AS65]	77.51 ± 0.4	-10.2 ± 65.4	–	–
CCN(CC)Cc1cc(Nc2ccnc3cc(Cl)ccc23)ccc1O [Amodiaquine, amodiaquine dihydrochloride dihydrate, reference compound]	87.7 ± 1	97.7 ± 10.6	significant reductions in luciferase activity	inhibitory effects in pseudo-type entry assay (Ebola virus): inhibitory effects; IC50 [1]: 1.45 µM; toxicity / cell viability (in words) (HEK-293T cells): without significant toxicity; antiplasmodial activity (Plasmodium): antiplasmodial activity
CCCCCc1ccc2ccccc2n1 [BS460]	107.5 ± 0.59	–	–	Inhibition at 10µM (percent inhibition of trVLP replication) [1]: 4.04± 44.15%; antiplasmodial activity (Plasmodium): antiplasmodial activity
CCN(CC)CCCC(C)Nc1ccnc2cc(Cl)ccc12 (centres unmarked) [Chloroquine, Chloroquine diphosphate, reference compound]	106 ± 1.24	92.2 ± 6.23	significant reductions in luciferase activity	protection against Ebola virus disease (Ebola virus disease): protective; IC50 [1]: 3.95 µM; antiplasmodial activity (Plasmodium): antiplasmodial activity
Cc1ccc2ccc(Br)c(O)c2n1 [DD1]	59.69 ± 0.03	90.5 ± 8.32	having inhibitory activity	–
Cc1ccc2ccc(C(=O)NCc3ccc(F)cc3)c(O)c2n1 [DD2]	77 ± 4.78	80.8 ± 1.38	having inhibitory activity	–
COc1cc(Cc2c(C)nc3ccccc3c2C(=O)O)c(Cl)c2c(C)ccnc12 [DD3]	105 ± 2.54	-156 ± 97.3	–	–
COc1ccc(Cl)c2c(C)ccnc12 [DD4]	90.1 ± 1.64	49.7 ± 1.17	–	–
Cc1ccnc2c(O)ccc(Cl)c12 [DD5]	51.4 ± 1.31	-66.5 ± 17.8	–	–

SMILES	viability at 10 µM (in vitro) [%]	inhibition at 10 µM [1] [%]	inhibitory activity in trVLP assay (in words) [1]	other results
O=C(O)c1ccc2ccc(/C=C/c3cccnc3)nc2c1O [DD6]	96.7 ± 2.01	-8.49 ± 18.6	–	–
Cc1ccc2c(C=O)cc(C=O)c(O)c2n1 [DD7]	90.3 ± 1.64	-31.6 ± 80.9	–	–
CCn1cc(C(=O)O)c(=O)c2ccc(/C=C/c3ccc(O)c(O)c3)nc21 [DD8]	91.54 ± 0.41	-74 ± 101	–	–
CCCCOC(=O)c1ccc2ccc(/C=C/c3cc(OC)c(O)c([N+](=O)[O-])c3)nc2c1O [FS48]	81.5 ± 0.97	-8.41 ± 60.4	–	–
CC(=O)Nc1ccc(/C=C/c2ccc3ccc(C(=O)O)c(O)c3n2)cc1 [FZ49]	72.7 ± 1.22	21.8 ± 28.4	–	–
O=C(O)c1ccc2ccc(/C=C/c3ccc([N+](=O)[O-])cc3)nc2c1O [FZ142]	102 ± 1.39	63.1 ± 2.64	–	–
Oc1cccc2ccc(/C=C/c3ccc4cccc(O)c4n3)nc12 [KHD288]	62.7 ± 0.72	-8.41 ± 60.4	–	–
N#Cc1ccc2ccc(/C=C/c3ccc(O)c(O)c3)nc2c1O [KHD291]	71.17 ± 0.12	-68.1 ± 58.1	–	–
O=C(c1ccc([N+](=O)[O-])cc1)c1ccc2ccc(/C=C/c3ccc(O)c(O)c3)nc2c1O [MBN87]	70.5 ± 0.78	-17.9 ± 51.8	–	–
O=C(c1ccc(F)c(F)c1)c1ccc2ccc(/C=C/c3ccc(O)c(O)c3)nc2c1O [MBN91]	43.5 ± 0.73	81.8 ± 8.8	having inhibitory activity	–
CCCCCCCCC(=O)c1ccc2ccc(/C=C/c3ccc(O)c(O)c3)nc2c1O [MBN111]	42.5 ± 4.97	-48.9 ± 87.8	–	–
Cc1ccc2ccc(C(=O)c3ccc([N+](=O)[O-])cc3)c(O)c2n1 [MBN115]	77.1 ± 0.93	–	–	–
O=C(c1ccccn1)c1ccc2ccc(/C=C/c3ccc(O)c(O)c3)nc2c1O [MBN132]	105 ± 1.39	-10.4 ± 57.7	–	–
Cc1ccc(C(=O)c2ccc3ccc(/C=C/c4ccc(O)c(O)c4)nc3c2O)cc1[N+](=O)[O-] [MBN140]	67.6 ± 0.73	-68.1 ± 58.1	–	–
O=C(NCc1ccc(O)c(O)c1)c1ccc2cccc(C(=O)O)c2n1 [MD20]	108.3 ± 0.56	-124 ± 93.4	–	–
O=[N+]([O-])c1cccc(-c2cc(Br)c(O)c3nc(/C=C/c4ccc(O)c(O)c4)ccc23)c1 [MD823]	58.9 ± 1.59	76.2 ± 3.16	having inhibitory activity	–
COc1ccc(CNC(=O)Nc2ccc3ccc(C(=O)O)c(O)c3n2)cc1 [TOF401]	106 ± 1.08	-44.6 ± 11.9	–	–
O=C(CC(=O)c1ccc2ccc(C(=O)O)c(O)c2n1)c1ccccc1 [TOF411]	104.9 ± 0.6	71.04 ± 0.67	having inhibitory activity	–
C(/C=C/c1ccc2ccccc2n1)=C\c1ccccc1 [XF906]	104 ± 1.65	0.21 ± 20.3	–	–
